What was measured:
[1] = target: full-length MALT1 protein (Strep-MALT1(1-824)-His) (Homo sapiens (Human), UniProt Q9UDY8); assay: MALT1 Biochemical Protease Assay (Ac-LRSR-AMC substrate); conditions: 10 nM FL MALT1, 200 μM Ac-LRSR-AMC, 4 h at RT; read-out: MALT1_Biochemical activity (Ac-LRSR-amc) IC50
Method in brief: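 Fluorescence from AMC release off the quenched LRSR substrate was read after a 4 h reaction at RT. Values were normalised to no-enzyme and uninhibited controls and fitted for IC50 and Hill coefficient.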

[2] = test system: IL6 secretion by OCI-LY3 ABC-DLBCL cells; assay: Human IL6 Mesoscale assay (OCI-LY3); type: cell-based; conditions: Homo sapiens, 24 h
Method in brief: (§1)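 TMD8 or OCI-LY3 cells (100,000/well) were exposed to compounds in 9 twofold dilutions from 15 μM to 58.6 nM (0.3% DMSO) for 24 h at 37 °C. Supernatant IL6 and IL10 were quantified by MSD electrochemiluminescence immunoassay. DMSO defined maximum signal and BTK inhibitor RN486 (30 nM–131 pM) defined maximum inhibition.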

[3] = test system: IL10 secretion by OCI-LY3 ABC-DLBCL cells; assay: Human IL10 Mesoscale assay (OCI-LY3); type: cell-based; conditions: Homo sapiens, 24 h
Method in brief: as §1

Sequence of full-length MALT1 protein (Strep-MALT1(1-824)-His) (Q9UDY8 whole entry): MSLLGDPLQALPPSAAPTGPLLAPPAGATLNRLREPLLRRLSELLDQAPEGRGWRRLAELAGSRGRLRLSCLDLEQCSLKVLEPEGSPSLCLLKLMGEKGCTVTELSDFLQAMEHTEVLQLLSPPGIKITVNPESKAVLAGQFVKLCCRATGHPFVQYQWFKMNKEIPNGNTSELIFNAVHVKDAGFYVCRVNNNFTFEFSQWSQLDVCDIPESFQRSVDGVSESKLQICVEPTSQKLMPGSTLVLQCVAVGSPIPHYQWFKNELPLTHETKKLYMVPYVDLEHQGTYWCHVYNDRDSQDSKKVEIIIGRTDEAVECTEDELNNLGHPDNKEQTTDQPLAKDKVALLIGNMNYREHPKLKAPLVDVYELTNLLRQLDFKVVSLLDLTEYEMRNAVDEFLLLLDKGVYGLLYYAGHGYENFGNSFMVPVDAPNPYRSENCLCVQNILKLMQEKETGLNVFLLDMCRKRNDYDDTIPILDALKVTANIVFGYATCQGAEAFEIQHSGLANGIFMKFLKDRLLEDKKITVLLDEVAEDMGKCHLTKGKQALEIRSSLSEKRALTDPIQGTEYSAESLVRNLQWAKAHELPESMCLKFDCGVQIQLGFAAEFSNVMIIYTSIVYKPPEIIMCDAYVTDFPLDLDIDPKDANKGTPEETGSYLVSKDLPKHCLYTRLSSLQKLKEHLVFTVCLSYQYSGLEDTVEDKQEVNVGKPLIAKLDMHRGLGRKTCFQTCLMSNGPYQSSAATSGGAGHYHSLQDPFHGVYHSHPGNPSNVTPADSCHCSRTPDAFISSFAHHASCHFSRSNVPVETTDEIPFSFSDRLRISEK

Row | IC50 [1] | IC50 [2] | IC50 [3] | SMILES
1 | 30 nM | 251 nM | 112 nM | CSc1ncc(-n2ncc(C(=O)Nc3cnc(-n4nccn4)c(Cl)c3)c2C(F)(F)F)c2ccccc12 [Cpd 429, N-(5-chloro-6-(2H-1,2,3-triazol-2-yl)pyridin-3-yl)-1-(1-(methylthio)isoquinolin-4-yl)-5-(trifluoromethyl)-1H-pyrazole-4-carboxamide]
2 | 501 nM | 309 nM | 339 nM | Nc1ccc2c(-n3ncc(C(=O)Nc4cnc(-n5nccn5)c(Cl)c4)c3C(F)(F)F)cccc2n1 [Cpd 331, 1-(2-aminoquinolin-5-yl)-N-(5-chloro-6-(2H-1,2,3-triazol-2-yl)pyridin-3-yl)-5-(trifluoromethyl)-1H-pyrazole-4-carboxamide]
3 | 174 nM | 437 nM | 309 nM | COc1cc(-n2ncc(C(=O)Nc3cnc(-n4nccn4)c(Cl)c3)c2C(F)(F)F)c2ccccc2n1 [Cpd 417, N-(5-chloro-6-(2H-1,2,3-triazol-2-yl)pyridin-3-yl)-1-(2-methoxyquinolin-4-yl)-5-(trifluoromethyl)-1H-pyrazole-4-carboxamide]
4 | 2000 nM | 12 nM | 12 nM | O=C(Nc1cnc(-n2nccn2)c(Cl)c1)c1cnn(-c2cccc3nc(C4CCCO4)ccc23)c1C(F)(F)F (stereo not drawn) [Cpd 372, N-(5-chloro-6-(2H-1,2,3-triazol-2-yl)pyridin-3-yl)-1-(2-(tetrahydrofuran-2-yl)quinolin-5-yl)-5-(trifluoromethyl)-1H-pyrazole-4-carboxamide]
5 | 117 nM | 40 nM | 16 nM | CNc1ncc(-n2ncc(C(=O)Nc3cnc(-n4nccn4)c(Cl)c3)c2C(F)(F)F)c2cccc(F)c12 [Cpd 324, N-(5-chloro-6-(2H-1,2,3-triazol-2-yl)pyridin-3-yl)-1-(8-fluoro-1-(methylamino)isoquinolin-4-yl)-5-(trifluoromethyl)-1H-pyrazole-4-carboxamide]
6 | 155 nM | 34 nM | 29 nM | O=C1CCC(c2ncc(-n3ncc(C(=O)Nc4cnc(-n5nccn5)c(Cl)c4)c3C(F)(F)F)c3ccccc23)N1 (stereo not drawn) [Cpd 369, N-(5-chloro-6-(2H-1,2,3-triazol-2-yl)pyridin-3-yl)-1-(1-(5-oxopyrrolidin-2-yl)isoquinolin-4-yl)-5-(trifluoromethyl)-1H-pyrazole-4-carboxamide]
7 | 2290 nM | 98 nM | 95 nM | O=C(Nc1cnc(-n2nccn2)c(Cl)c1)c1cnn(-c2c[n+]([O-])cc3sccc23)c1C(F)(F)F [Cpd 409, 4-(4-((5-chloro-6-(2H-1,2,3-triazol-2-yl)pyridin-3-yl)carbamoyl)-5-(trifluoromethyl)-1H-pyrazol-1-yl)thieno[2,3-c]pyridine 6-oxide]
8 | 417 nM | 48 nM | 44 nM | N#Cc1cc(NC(=O)c2cnn(-c3cccc4nc(N)ccc34)c2C(F)(F)F)cnc1-n1nccn1 [Cpd 332, 1-(2-aminoquinolin-5-yl)-N-(5-cyano-6-(2H-1,2,3-triazol-2-yl)pyridin-3-yl)-5-(trifluoromethyl)-1H-pyrazole-4-carboxamide]
9 | 112 nM | 229 nM | 204 nM | O=C(Nc1cnc(-n2nccn2)c(Cl)c1)c1cnn(-c2cnc(Cl)c3ccccc23)c1C(F)(F)F [Cpd 285, N-(5-chloro-6-(2H-1,2,3-triazol-2-yl)pyridin-3-yl)-1-(1-chloroisoquinolin-4-yl)-5-(trifluoromethyl)-1H-pyrazole-4-carboxamide]
10 | 363 nM | 437 nM | 309 nM | O=C(Nc1cnc(-n2nc3ccncc3n2)c(Cl)c1)c1cnn(-c2cccc3ncccc23)c1C(F)(F)F [Cpd 162, N-(6-(2H-[1,2,3]triazolo[4,5-c]pyridin-2-yl)-5-chloropyridin-3-yl)-1-(quinolin-5-yl)-5-(trifluoromethyl)-1H-pyrazole-4-carboxamide]

Further lines, the compound ahead of its results:

Row | SMILES | IC50 [1] | IC50 [2] | IC50 [3]
11 | N#Cc1c(C(=O)Nc2cnc(-n3nccn3)c(Cl)c2)cnn1-c1cccc2ncccc12 [Cpd 186, N-(5-Chloro-6-(2H-1,2,3-triazol-2-yl)pyridin-3-yl)-5-cyano-1-(quinolin-5-yl)-1H-pyrazole-4-carboxamide] | 380 nM | 1120 nM | 891 nM
12 | Cc1nc2c(-n3ncc(C(=O)Nc4cnc(-n5nccn5)c(C#N)c4)c3C(F)(F)F)cccc2o1 [Cpd 219, N-(5-cyano-6-(2H-1,2,3-triazol-2-yl)pyridin-3-yl)-1-(2-methylbenzo[d]oxazol-4-yl)-5-(trifluoromethyl)-1H-pyrazole-4-carboxamide] | 2690 nM | 102 nM | 126 nM
13 | Cc1nc(-n2nccn2)c(Cl)cc1NC(=O)c1cnn(-c2ccc(C)n3nccc23)c1C(F)(F)F [Cpd 318, N-(5-chloro-2-methyl-6-(2H-1,2,3-triazol-2-yl)pyridin-3-yl)-1-(7-methylpyrazolo[1,5-a]pyridin-4-yl)-5-(trifluoromethyl)-1H-pyrazole-4-carboxamide] | 83 nM | 162 nM | 138 nM
14 | O=C(Nc1cnc(-c2cn[nH]n2)c(Cl)c1)c1cnn(-c2cccc3ncccc23)c1C(F)(F)F [Cpd 309, N-(5-chloro-6-(2H-1,2,3-triazol-4-yl)pyridin-3-yl)-1-(quinolin-5-yl)-5-(trifluoromethyl)-1H-pyrazole-4-carboxamide] | 55 nM | 151 nM | 117 nM
15 | O=C(Nc1cnc(-n2nccn2)c(Cl)c1)c1cnn(-c2cnc(Cl)c3sccc23)c1C(F)(F)F [Cpd 424, N-(5-chloro-6-(2H-1,2,3-triazol-2-yl)pyridin-3-yl)-1-(7-chlorothieno[2,3-c]pyridin-4-yl)-5-(trifluoromethyl)-1H-pyrazole-4-carboxamide] | 72 nM | 166 nM | 182 nM
16 | Nc1cnn(-c2ncc(NC(=O)c3cnn(-c4cccc5scnc45)c3C(F)(F)F)cc2Cl)n1 [Cpd 299, N-(6-(4-amino-2H-1,2,3-triazol-2-yl)-5-chloropyridin-3-yl)-1-(benzo[d]thiazol-4-yl)-5-(trifluoromethyl)-1H-pyrazole-4-carboxamide] | 105 nM | 537 nM | 309 nM
17 | Cn1ccc(-c2ncc(NC(=O)c3cnn(-c4cccc5nnsc45)c3C(F)(F)F)cc2Cl)n1 [Cpd 293, 1-(benzo[d][1,2,3]thiadiazol-7-yl)-N-(5-chloro-6-(1-methyl-1H-pyrazol-3-yl)pyridin-3-yl)-5-(trifluoromethyl)-1H-pyrazole-4-carboxamide] | 76 nM | 447 nM | 251 nM
18 | N#Cc1cc(NC(=O)c2cnn(-c3ncnc4scnc34)c2C(F)(F)F)cnc1-n1nccn1 [Cpd 294, N-(5-cyano-6-(2H-1,2,3-triazol-2-yl)pyridin-3-yl)-1-(thiazolo[5,4-d]pyrimidin-7-yl)-5-(trifluoromethyl)-1H-pyrazole-4-carboxamide] | 76 nM | 1580 nM | 871 nM
19 | NC(=O)c1cn(-c2ncc(NC(=O)c3cnn(-c4cccc5ncccc45)c3C(F)(F)F)cc2Cl)nn1 [Cpd 246, 1-(3-chloro-5-(1-(quinolin-5-yl)-5-(trifluoromethyl)-1H-pyrazole-4-carboxamido)pyridin-2-yl)-1H-1,2,3-triazole-4-carboxamide] | 380 nM | 135 nM | 63 nM
20 | N#Cc1ncc(NC(=O)c2cnn(-c3cccc4c(=O)[nH]ccc34)c2C(F)(F)F)cc1C(F)(F)F [Cpd 354, N-(6-cyano-5-(trifluoromethyl)pyridin-3-yl)-1-(1-oxo-1,2-dihydroisoquinolin-5-yl)-5-(trifluoromethyl)-1H-pyrazole-4-carboxamide] | 52 nM | 457 nM | 437 nM
21 | CCOC(C)c1ncc(-n2ncc(C(=O)Nc3cnc(-n4nccn4)c(Cl)c3)c2C(F)(F)F)c2ccccc12 (stereo not drawn) [Cpd 368, N-(5-chloro-6-(2H-1,2,3-triazol-2-yl)pyridin-3-yl)-1-(1-(1-ethoxyethyl)isoquinolin-4-yl)-5-(trifluoromethyl)-1H-pyrazole-4-carboxamide] | 331 nM | 170 nM | 79 nM
22 | N#Cc1cc(NC(=O)c2cnn(-c3cnc(N)c4ccccc34)c2C(F)(F)F)ccn1 [Cpd 340, 1-(1-aminoisoquinolin-4-yl)-N-(2-cyanopyridin-4-yl)-5-(trifluoromethyl)-1H-pyrazole-4-carboxamide] | 209 nM | 295 nM | 229 nM
23 | O=C(Nc1cnc(-n2ccnn2)c(Br)c1)c1cnn(-c2cccc3ncccc23)c1C(F)(F)F [Cpd 287, N-(5-bromo-6-(1H-1,2,3-triazol-1-yl)pyridin-3-yl)-1-(quinolin-5-yl)-5-(trifluoromethyl)-1H-pyrazole-4-carboxamide] | 95 nM | 229 nM | 234 nM
24 | Cc1nc(-n2cccn2)c(Cl)cc1NC(=O)c1cnn(-c2cnc(N)c3ccccc23)c1C(F)(F)F [Cpd 336, 1-(1-aminoisoquinolin-4-yl)-N-(5-chloro-2-methyl-6-(1H-pyrazol-1-yl)pyridin-3-yl)-5-(trifluoromethyl)-1H-pyrazole-4-carboxamide] | 214 nM | 209 nM | 117 nM
25 | CNC(=O)c1ncc(-n2ncc(C(=O)Nc3cnc(-n4nccn4)c(Cl)c3)c2C(F)(F)F)c2ccccc12 [Cpd 390, 4-(4-((5-chloro-6-(2H-1,2,3-triazol-2-yl)pyridin-3-yl)carbamoyl)-5-(trifluoromethyl)-1H-pyrazol-1-yl)-N-methylisoquinoline-1-carboxamide] | 102 nM | 98 nM | 83 nM

Reference: US10954214B2 (Janssen Pharmaceutica NV, priority 2016, dated 2021)
